Data from article PMC10666548, “Identification of the bacterial metabolite aerugine as potential trigger of human dopaminergic neurodegeneration” (Environment international, 2023).

Assays:
[1] = Cytotoxicity to proliferating (d0) LUHMES cells, calcein-AM & H-33342 imaging; format: cell-based; details: human, proliferating LUHMES d0, 24 h exposure, read-out: EC50 (half-maximal cytotoxic potency), cell viability
Procedure: LUHMES cells were cultivated as described previously ([Krug et al., 2013]; [Schildknecht et al., 2013]; [Scholz et al., 2011]). In brief, cells were grown in standard cell culture flasks pre-coated with 50 μg/ml PLO and 1 μg/ml fibronectin in water for at least 3 h at 37 °C. The maintenance culture was kept in proliferation medium consisting of advanced DMEM/F12 with 2 mM L-glutamine, 1x N2-supplement, and 40 ng/ml FGF-2. The cells were incubated at 37 °C with 5% CO2 and passaged trice a week when reaching 75–90% confluence. They were used up to passage 18. […]
Neurite area (NA) and viability (V) were assessed as described previously ([Stiegler et al., 2011]). […] Image acquisition was performed using an Array-Scan VTI HCS Reader (Cellomics, PA, USA) equipped with a Hamamatsu ORCA-ER camera. […]
(§1) Nuclei were identified in channel 1 depending on intensity, area, size and shape. […] The NA was automatically calculated by excluding the VCSAs from the VCSs. […]
(§2) Fig. 3. […] The cell viability was assessed 24 h later by calcein-AM & H-33342 staining and high content imaging. […] The overall cell viability was assessed by measuring resazurin reduction in technical triplicates. […] The cell viability was assessed 24 h later by calcein-AM & H-33342 staining and high content imaging. […]

[2] = Cytotoxicity to immature (d2) LUHMES cells, calcein-AM & H-33342 imaging; format: cell-based; details: human, immature LUHMES d2, 24 h exposure, read-out: EC50 (half-maximal cytotoxic potency), cell viability
Procedure: The assays were performed as described previously ([Hoelting et al., 2016]; [Klima et al., 2021]; [Krug et al., 2013]). In brief, 30′000 cells per well were seeded on d2 (LUHMES) / d0 (peripheral neurons, Cortex.4U, CNS.4U) in their respective differentiation media into standard pre-coated 96-well plates. They were incubated for 1 h at 37 °C and 5% CO2 before treatment. 24 h after treatment the Calcein/Hoechst readout was performed.
Neurite area (NA) and viability (V) were assessed as described previously ([Stiegler et al., 2011]). In brief, cells were stained with 1 μM calcein-AM and 1 μg/ml H-33342 for 30 min at 37 °C and 5% CO2. Image acquisition was performed using an Array-Scan VTI HCS Reader (Cellomics, PA, USA) equipped with a Hamamatsu ORCA-ER camera. 10 fields per well were imaged with 2 channels at 20x magnification (2×2 pixel binning). […]
as §1, §2

Hek293FT = experiment: Cell line viability, resazurin reduction, 72 h; format: cell-based, human; details: at <100 μM
Procedure: (§3) Hek293FT were acquired from ThermoFisher Scientific (cat. no. R70007). HepG2 were acquired from ATCC (HB-8065). HeLa were acquired from ATCC (CCL-2). The cell culture was performed as described previously ([Dolde et al., 2021]). Briefly, the cell lines were kept in DMEM Glutamax with 10% FCS and 1% penicillin/streptomycin at 37 °C with 5% CO2. They were grown in normal cell culture flasks (Sarstedt) to 75–90% confluence and seeded into standard 96-well plates 24 h prior to compound treatment. The cells were treated by performing a medium change to Advanced DMEM/F12 supplemented with 2 mM L-glutamine containing the indicated compound concentrations.
(§4) The assay was performed as described previously ([Schildknecht et al., 2009]). In brief, cells were stained with 10 μg/ml resazurin and incubated for 30 min at 37 °C and 5% CO2. The fluorescence of resazurin was detected with an excitation wavelength of 530 nm, using a 590 nm long-pass filter to record the emission.
(§5) Fig. 3. Cell type specificity of aerugine cytotoxicity. A Cultures of LUHMES neurons were used on d0 (proliferating, blue), d2 (immature, black) or d6 (mature, red) of differentiation for cytotoxicity testing. Cells were exposed to nine serial dilutions of synthetic aerugine. The cell viability was assessed 24 h later by calcein-AM & H-33342 staining and high content imaging. […] Dotted lines at 4 μM indicate the average EC50 for mature LUHMES. […] They were treated for 72 h with synthetic aerugine. The overall cell viability was assessed by measuring resazurin reduction in technical triplicates. Data are presented as means ± range of two biological replicates (different experiments). C Three iPSC-derived neuronal cell types were treated for 24 h with synthetic aerugine. The cell viability was assessed 24 h later by calcein-AM & H-33342 staining and high content imaging. Data are presented as means ± SEM of three biological replicates (different experiments). D Lack of cytotoxic or bacteriostatic effects of aerugine (20 μM) on exemplary gram-positive and gram-negative microbes: The growth characteristics of Enterococcus faecalis (gram-positive) and Neisseria gonorrhoeae MS11 (gram-negative) were followed during the log growth phase in their respective culture media. Data are from one biological replicate.

HepG2 = experiment: Cell line viability, resazurin reduction, 72 h; format: cell-based, human; details: HepG2, 72 h, at <100 μM
Procedure: as §3, §4, §5

HeLa = experiment: Cell line viability, resazurin reduction, 72 h; format: cell-based, human; details: at <100 μM
Procedure: as §3, §4, §5

5HT2B receptor = system: 5HT2B receptor; parameters: method as in Lin et al., 2017; details: ref Lin et al., 2017; cited from earlier work

## OCC1CSC(c2ccccc2O)=N1 (stereo not drawn) [aerugine, 2-[4-(hydroxymethyl)-4,5-dihydro-1,3-thiazol-2-yl]phenol]
[1]
  EC50 at 24 h: 13 ± 0.2 µM
[2]
  EC50 at 24 h: 9.3 ± 1.1 µM
Hek293FT
  toxicity (overall cell viability, resazurin reduction): no toxicity was observed
Hek293FT; listed as Aerugine
  toxicity (overall cell viability, resazurin reduction): non-toxic
HepG2
  toxicity (overall cell viability, resazurin reduction): no toxicity was observed
HepG2; listed as Aerugine
  toxicity (overall cell viability, resazurin reduction): non-toxic
HeLa
  toxicity (overall cell viability, resazurin reduction): no toxicity was observed
HeLa; listed as Aerugine
  toxicity (overall cell viability, resazurin reduction): non-toxic
5HT2B receptor
  displacement of radioactive lysergic acid diethylamide: displaced radioactive lysergic acid diethylamide at low μM concentrations
